According to PubChem BioAssay AID2525 (Broad Institute, 2010):
Active and inactive are the calls of the source.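 Rule for the calls: active = EC50 at most tenfold above the top concentration tested; inconclusive = flat fit with activity between 30% and 70%, or invalid fit; inactive = EC50 beyond tenfold above the top concentration.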

Test system: S. cerevisiae SKY197-pL101 polyadenylation reporter, beta-gal luminescence, 9 h
Experiment: mRNA 3' processing disruption, beta-gal signal increase – luminescence, S. cerevisiae SKY197-pL101, dose response (AID 2525)

## Nc1ncnc2c1ncn2C1OC(CO)CC1O (stereo unspecified)
  EC50: > 50 µM (inactive)
